# Reference: patent US12551562B2, “Methods and compositions for irreversible enzyme inhibition” (TRITERPENOID THERAPEUTICS, INC., priority 2019, dated 2026)
# Columns and labels:
# HSA = biological target: T1, HSA (Homo sapiens, UniProt P02768); experiment: Modification of HSA by triterpenoids, LC-MS/MS of tryptic digests; assay type: binding
# T1 construct: contains 585 amino acids (corresponding to 25-609 of P02768); purchased Sigma-Aldrich
# Protocol: Triterpenoids were dissolved in DMSO to make up 1 mM stock solutions, followed by dilutions in phosphate buffer (10 mM, pH 7.4) and incubated with recombinant HSA (0.6 mM, 50 μL) in sealed Eppendorf tubes at 37° C. for 16 h. The molar ratios of drug to protein were 0.00001:1, 0.0001:1, 0.001:1, 0.01:1, 0.1:1, and 1:1. Protein was precipitated twice with 9 volumes of ice-cold methanol to remove free drug, resuspended in 50 μL phosphate buffer and then reduced with 10 mM dithiothreitol (15 min) and alkylated with 55 mM iodoacetamide (15 min) at room temperature. The protein was precipitated with methanol once more and finally dissolved in 100 μL 50 mM ammonium hydrogencarbonate, and 165 μg […] of protein was digested with 1.6 μg trypsin overnight at 37° C.
# To examine the time-dependent modification of HSA by triterpenoids, 10 μM triterpenoids was incubated with HSA (0.6 mM, 300 μL) at 37° C. Aliquots of 50 μL were removed after 10, 30, 60, and 180 minutes and processed for LC-MS/MS analysis.
# (§1) The tryptic peptides were analyzed by a Triple TOF 5600 mass spectrometer (Sciex). […] Sequence coverage was determined using ProteinPilot software, v4.0 and the most recent version of the SwissProt database.
# recombinant Keap1 = biological target: T2, recombinant Keap1 (Homo sapiens, UniProt Q14145); experiment: Modification of Keap1 by triterpenoids, LC-MS/MS of tryptic digests; assay type: binding; details: 100 μM, 16 h
# T2 construct: made in house
# T2 sequence (Q14145 whole entry): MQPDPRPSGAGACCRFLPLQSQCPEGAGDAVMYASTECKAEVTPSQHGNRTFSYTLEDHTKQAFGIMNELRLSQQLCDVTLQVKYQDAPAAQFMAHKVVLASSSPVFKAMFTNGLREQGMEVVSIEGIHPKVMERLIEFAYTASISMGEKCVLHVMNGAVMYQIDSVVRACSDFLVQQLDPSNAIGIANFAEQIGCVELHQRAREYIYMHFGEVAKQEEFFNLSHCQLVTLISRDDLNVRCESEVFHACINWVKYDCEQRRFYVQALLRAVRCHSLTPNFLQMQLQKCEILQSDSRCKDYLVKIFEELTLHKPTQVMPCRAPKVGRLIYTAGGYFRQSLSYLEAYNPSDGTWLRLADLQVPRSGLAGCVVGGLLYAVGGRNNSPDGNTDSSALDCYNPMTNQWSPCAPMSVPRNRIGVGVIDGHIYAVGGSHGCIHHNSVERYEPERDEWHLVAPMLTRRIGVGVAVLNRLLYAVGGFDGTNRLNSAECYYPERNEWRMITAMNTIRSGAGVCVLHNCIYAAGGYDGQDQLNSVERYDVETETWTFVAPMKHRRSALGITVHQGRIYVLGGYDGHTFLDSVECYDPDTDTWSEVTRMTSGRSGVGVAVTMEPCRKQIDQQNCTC
# Protocol: Triterpenoids were dissolved in DMSO to make up 1 mM stock solutions, followed by dilutions in phosphate buffer (10 mM, pH 7.4) and incubated with recombinant Keap1 proteins produced in house at 37° C. for 16 h. The final concentration of triterpenoids was 100 μM. The mixture was then purified by 1D-gel electrophoresis using an established protocol, followed by in gel-digestion. The digests were further purified by C18-ziptiping and analyzed by LC-MS/MS.
# (§2) The tryptic peptides were analyzed by a Triple TOF 5600 mass spectrometer (Sciex). Samples were reconstituted in 50 μL 0.1% formic acid (FA) and 2 μL of samples were delivered into the instrument using an Eksigent Nano-LC system mounted with a nanoACQUITY UPLC Symmetry C18 Trap Column and an analytical BEH C18 nanoACQUITY Column (Waters, MA, USA). A NanoSpray III source was fitted with a 10 μm inner diameter PicoTip emitter (New Objective). Samples were loaded in 0.1% formic acid onto the trap, which was then washed with 2% ACN/0.1% FA for 10 min at 2 μL/min before switching in-line with the analytical column. A gradient of 2-50% (v/v) ACN/0.1% (v/v) FA over 90 min was applied to the column at a flow rate of 300 nL/min. […] Sequence coverage was determined using ProteinPilot software, v4.0 and the most recent version of the SwissProt database.
# [1] = test system: Epstein-Barr virus-transformed B-cell lines; experiment: Modification of B cell intracellular proteins by triterpenoids, proteomics LC-MS/MS; assay type: cell-based, human
# Protocol: Epstein-Barr virus-transformed B-cell lines were generated with previously described methods by incubating PBMC with supernatant from the Epstein-Barr virus-producing cell line B9-58. B cells were maintained in F1 medium at 37° C., 5% CO2. Cells were plated into an 8-well plate at a concentration of 1×10^6 cells/ml and treated with triterpenoids at different concentrations (0, 1, 10 μM) for 16 hours. 200 μL cells were then plated (1×10^5 cells/well) into a 96-well plate, [^3H]-thymidine (0.5 μCi/well) was then added and incubated for 16 hours. Cell was harvested and the proliferative responses were measured by [^3H]-thymidine incorporation. For the remaining cells, supernatants were removed for ELISA (TNFα, IL10, and IFNγ) and proteomics analysis. The cells were then washed in PBS and lysed with 2D lysis buffer (40 mM Tris base, 7M urea, 2M thiourea, 4% (w/v) CHAPS, and 1% DTT). Cell lysates were sonicated and centrifuged at 18000 rpm for 20 minutes at […]. Supernatants were collected and the protein concentrations were measured by BCA assay. Proteins were denatured and processed for mass spectrometric analysis.
# as §1
# His-GSTP = biological target: T3, His-GSTP (Homo sapiens, UniProt P09211); experiment: Modification of His-GSTP by triterpenoids, LC-MS/MS of tryptic digests; assay type: binding
# T3 construct: made in house; host or cells: E. coli
# T3 sequence (P09211 whole entry): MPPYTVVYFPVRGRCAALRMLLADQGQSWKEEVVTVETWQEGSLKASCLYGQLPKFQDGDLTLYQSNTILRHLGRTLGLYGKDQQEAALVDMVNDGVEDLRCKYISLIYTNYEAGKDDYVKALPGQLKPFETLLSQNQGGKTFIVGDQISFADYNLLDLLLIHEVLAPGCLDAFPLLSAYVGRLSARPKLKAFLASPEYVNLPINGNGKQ
# Protocol: His-GSTP was expressed in E. coli as described previously. Purified His-GSTP captured on nickel beads was incubated with a range of concentrations of CDDO-Im (50 nM-10 μM) in phosphate buffer, pH 7.4 for 16 h. CDDO-Me (0.5 mM) was used as a positive control. The beads were then washed 5 times with 1000 μL phosphate buffer. The protein was subjected to on-bead tryptic digestion. In brief, a suspension beads in 30 μL of 50 mM ammonium bicarbonate buffer was incubated with 20 ng of trypsin for 16 h at 37° C. and the digest was analyzed by LC-MS/MS.
# The tryptic peptides were analyzed by a Triple TOF 5600 mass spectrometer (Sciex). Samples were reconstituted in 50 μL 0.1% formic acid (FA) and 2 μL of samples were delivered into the instrument using an Eksigent Nano-LC system mounted with a nanoACQUITY UPLC Symmetry C18 Trap Column and an analytical BEH C18 nanoACQUITY Column (Waters, MA, USA). A NanoSpray III source was fitted with a 10 μm inner diameter PicoTip emitter (New Objective). Samples were loaded in 0.1% formic acid onto the trap, which was then washed with 2% ACN/0.1% FA for 10 min at 2 μL/min before switching in-line with the analytical column. A gradient of 2-50% (v/v) ACN/0.1% (v/v) FA over 90 min was applied to the column at a flow rate of 300 nL/min. Spectra were acquired automatically in positive ion mode using information-dependent acquisition, using mass ranges of 400-1600 amu in MS and 100-1400 amu in MS/MS. Up to 25 MS/MS spectra were acquired per cycle (approximately 10 Hz) using a threshold of 100 counts per s, with dynamic exclusion for 12 s and rolling collision energy. Sequence coverage was determined using ProteinPilot software, v4.0 and the most recent version of the SwissProt database.
# LONP protein = biological target: T4, LONP protein (Homo sapiens, UniProt P36776); experiment: Modification of LONP by triterpenoids, LC-MS/MS of tryptic digests; assay type: binding; details: 100 μM, 16 h; lysine (3), cysteine (3), tyrosine (2)
# T4 construct: Professor John Letterio (supplied; not a vendor)
# T4 sequence (P36776 68-959): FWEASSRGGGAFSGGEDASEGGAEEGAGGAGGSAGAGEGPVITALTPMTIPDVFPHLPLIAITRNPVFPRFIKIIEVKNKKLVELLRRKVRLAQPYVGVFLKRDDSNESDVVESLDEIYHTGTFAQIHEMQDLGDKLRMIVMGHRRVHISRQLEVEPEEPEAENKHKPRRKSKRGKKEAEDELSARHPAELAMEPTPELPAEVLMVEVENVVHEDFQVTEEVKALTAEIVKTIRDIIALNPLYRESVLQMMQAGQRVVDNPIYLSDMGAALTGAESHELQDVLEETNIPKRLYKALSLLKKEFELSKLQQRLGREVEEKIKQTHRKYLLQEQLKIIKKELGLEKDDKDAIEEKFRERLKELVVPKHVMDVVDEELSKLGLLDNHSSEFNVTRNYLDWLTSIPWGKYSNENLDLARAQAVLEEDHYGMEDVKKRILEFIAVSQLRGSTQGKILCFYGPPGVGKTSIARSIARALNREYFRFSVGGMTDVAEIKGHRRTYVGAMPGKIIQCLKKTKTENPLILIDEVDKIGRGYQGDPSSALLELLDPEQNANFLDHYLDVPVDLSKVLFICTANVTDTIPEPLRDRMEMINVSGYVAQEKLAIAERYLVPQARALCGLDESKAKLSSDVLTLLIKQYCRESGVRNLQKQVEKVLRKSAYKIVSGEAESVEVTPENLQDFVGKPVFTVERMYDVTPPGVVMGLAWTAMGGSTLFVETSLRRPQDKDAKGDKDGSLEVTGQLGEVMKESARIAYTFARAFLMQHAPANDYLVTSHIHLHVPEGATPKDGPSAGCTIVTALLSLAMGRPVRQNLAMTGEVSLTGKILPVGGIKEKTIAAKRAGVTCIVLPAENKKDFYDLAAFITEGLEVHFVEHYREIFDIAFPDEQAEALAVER
# Protocol: The LONP protein (Professor John Letterio) was first purified by buffer exchange using spin filters (3K MWCO). 10 μg protein was then incubated with CDDO-2P-Im (100 μM) in phosphate buffer (10 mM, pH 7.4) at 37° C. for 16 h. The mixture was then purified by 1D-gel electrophoresis using an established protocol, followed by in gel-digestion. The digests were further purified by C18-ziptiping and analyzed by LC-MS/MS.
# as §2
# T1 sequence (P02768 25-609): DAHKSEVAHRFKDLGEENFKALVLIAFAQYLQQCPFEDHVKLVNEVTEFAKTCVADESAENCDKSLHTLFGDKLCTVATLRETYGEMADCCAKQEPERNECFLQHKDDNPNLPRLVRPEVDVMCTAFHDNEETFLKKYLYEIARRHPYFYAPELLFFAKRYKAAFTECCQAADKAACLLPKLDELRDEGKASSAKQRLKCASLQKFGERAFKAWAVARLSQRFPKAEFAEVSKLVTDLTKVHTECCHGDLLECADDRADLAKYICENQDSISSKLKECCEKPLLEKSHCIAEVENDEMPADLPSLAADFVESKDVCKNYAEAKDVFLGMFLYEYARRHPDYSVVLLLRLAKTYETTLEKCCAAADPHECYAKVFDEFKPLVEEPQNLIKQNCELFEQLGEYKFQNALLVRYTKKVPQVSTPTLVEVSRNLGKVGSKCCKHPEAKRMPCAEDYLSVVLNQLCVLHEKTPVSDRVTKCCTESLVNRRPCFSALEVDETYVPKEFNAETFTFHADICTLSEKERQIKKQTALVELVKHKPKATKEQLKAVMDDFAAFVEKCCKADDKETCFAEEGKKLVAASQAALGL
"number of CDDO-modified HSA peptides (HSA; 500 μM, 16 h, lysine (9), arginine (2), serine (7), tyrosine (5))",modification of Cys151 of Keap1 (recombinant Keap1),number of binding sites identified on Keap1 (recombinant Keap1; phosphate buffer pH 7.4),"covalent binding to GSTP, dependence on concentration (His-GSTP; 16 hour incubation at 37° C.)","plateau of binding to GSTP (His-GSTP; in comparison to CDDO-Im, 16 hour incubation at 37° C., FIG. 1C/1D)","preferred binding site on GSTP (His-GSTP; increasing drug concentrations, 16 hour incubation at 37° C., FIG. 1D)",number of modified LONP peptides (LONP protein),"modification of HSA, dependence on concentration and time (HSA; normalized ion counts of modified peptides)","lowest concentration at which adducts with GSTP were detectable (His-GSTP; phosphate buffer pH 7.4, 16 h, 50 nM-10 μM tested) [nM]","site of the simple Michael adduct (CDDO carboxylate, +491.5 amu) on GSTP (His-GSTP; tryptic digests of treated GSTP)",Compound,number of modified B cell proteins identified ([1]; 10 μM for 16 hours),modification of the 4 active cysteine residues of PPIA ([1]; B cells treated with 10 μM for 16 hours)
23,not detected,8,bind to GSTP in a similar manner,binding does not plateau above 5 μM,Cys48,8,,,,"CC1(C)CC[C@]2(C(=O)n3cnc(-c4ccccn4)c3)CC[C@]3(C)[C@H](C(=O)C=C4[C@@]5(C)C=C(C#N)C(=O)C(C)(C)[C@@H]5CC[C@]43C)[C@@H]2C1 [CDDO-2P-Im, 1-[2-Cyano-3,12-dioxooleana-1,9(11)-dien-28-oyl]-4(-pyridin-2-yl)-1H-imidazole]",32,all modified
,,,concentration-dependent,,,,concentration- and time-dependent,50,only detected on Cys48,"CC1(C)CC[C@]2(C(=O)n3ccnc3)CC[C@]3(C)[C@H](C(=O)C=C4[C@@]5(C)C=C(C#N)C(=O)C(C)(C)[C@@H]5CC[C@]43C)[C@@H]2C1 [CDDO-Im, 1-(2-cyano-3,12-dioxooleana-1,9(11)-dien-28-oyl) imidazole]",,
